Earlier results, collected in paper PMC5629142 (Drugs in R&D, 2017).

Conditions: TBZ co-administered with CYP2D6 inhibitors

increase in overall exposure: 3 fold
Structure (SMILES): COc1cc2c(cc1OC)[C@@H]1C[C@H](O)[C@@H](CC(C)C)CN1CC2 [α-HTBZ]
